Data as given in patent US20070092551A1, “Therapeutic agent” (TAKARA BIO INC., priority 2003, published 2007).

Key:
[1] = molecular target: T1, fusion protein of an yeast GAL4 DNA-binding domain and a human PPARγ ligand-binding site (Homo sapiens, UniProt P37231); assay: PPARγ activation reporter assay in CV-1 cells; type: cell-based; conditions: test compound 10 μM, pFA-CMV (PPARγ), 24 hours
T1 construct: expressed in transfected cells; host or cells: CV-1 cells
T1 sequence (P37231 204-505): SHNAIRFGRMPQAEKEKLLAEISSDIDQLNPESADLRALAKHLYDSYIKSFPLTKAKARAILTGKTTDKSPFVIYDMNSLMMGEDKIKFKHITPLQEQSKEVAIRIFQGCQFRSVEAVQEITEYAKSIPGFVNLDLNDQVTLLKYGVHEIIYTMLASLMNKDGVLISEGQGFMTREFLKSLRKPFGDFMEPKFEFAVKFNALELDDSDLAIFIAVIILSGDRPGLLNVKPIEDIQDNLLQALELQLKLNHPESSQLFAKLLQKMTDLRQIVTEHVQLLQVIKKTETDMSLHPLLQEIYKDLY
Method: The activation ability for PPARγ was determined by a reporter assay using a fusion protein of an yeast GAL4 DNA-binding domain and a human PPARγ ligand-binding site.
A plasmid (pGAL4/GL3-Promoter) was prepared by repeating five times insertion of a binding site (UASg) of GAL4 into a multicloning site of a pGL3-Promoter vector (Promega). In addition, a ligand-binding site (amino acid sequence 204 to 505) of the PPARγ gene was cloned from a human liver cDNA library (manufactured by TAKARA BIO INC.) by a polymerase chain reaction, and the ligand-binding site was inserted into a multicloning site of a pFA-CMV plasmid vector ([…]) to give pFA-CMV (PPARγ).
Escherichia coli JM-109 strain was transformed with each of the two kinds of the plasmids obtained by the above-mentioned procedures, and pFA-CMV and pRL-TK (Promega) according to a conventional method. Each of the Escherichia coli cells was cultured with shaking at 37° C. for 18 hours in an LB medium containing 100 μg/mL ampicillin. Thereafter, the plasmids of each were purified according to the procedure manual of QIAfilter Plasmid midi Kit (QIAGEN).
CV-1 cells were seeded in a 24-well plate so as to have a density of 4×10^4 cells per well. Thereafter, the cells were cultured in a Dulbecco's modified Eagle's medium (manufactured by Sigma, D5796) containing 10% fetal bovine serine (manufactured by Bio Whittaker) for 24 hours under the conditions of 37° C. and 5% CO2. Thereafter, in accordance with the procedure manual of LipofectAmine 2000 (Invitrogen), the gene transfer was carried out into the CV-1 cells with 200 ng of pFA-CMV (PPARγ) or pFA-CMV, 400 ng of pGAL4/GL3-promoter, and 200 ng of pRL-TK per well, and thereafter the cells were cultured for 24 hours under the conditions of 37° C. and 5% CO2. Thereafter, the medium was exchanged with a Dulbecco's modified Eagle's medium to which a test compound dissolved in dimethyl sulfoxide was previously added so as to have a final concentration of 10 μM. Thereafter, the cells were cultured for additional 24 hours. In addition, there were set a group with addition of dimethyl sulfoxide in place of a test compound as a negative control, and a group with addition of troglytazone (manufactured by Calbiochem) so as to have a final concentration of 3 μM as a positive control. The cells were washed with a phosphate buffered saline, and 5× PassiveLysisBuffer (Promega) which was previously diluted in 5-folds with distilled water was added thereto in an amount of 100 μL per well. The mixture was shaken at room temperature for 15 minutes to lyse cells. Twenty microliters of this lysed solution was applied in accordance with the procedure manual of Dual Luciferase Assay System (Promega), and a fluorescent luciferase emission intensity and a Renilla mullerei luciferase emission intensity were measured using Mithras-LB940 (BERTHOLD TECHNOLOGIES GmbH). The enhancing action for transcriptional activation of each test compound was shown as a relative value obtained by calculating a ratio of the fluorescent luciferase emission intensity to the Renilla mullerei luciferase emission intensity, wherein the value of the group with addition of the negative control is defined as 1.

[2] = tested on: type II diabetes model mice; assay: Suppressive effects on incidence of diabetes (blend feed); type: in vivo, KK-Ay mice; conditions: 0.15% blend feed; for Blood Glucose Level, Previous Day: male 5-week old KK-Ay mice, day before beginning of administration; for Blood Glucose Level, Previous Day / Amount of Drunk Water, Ninth to Fifteenth Day / Amount of Drunk Water, Second to Eighth Day / Blood Glucose Level, Fifteenth Day: mean ± standard error; for effects for suppressing the incidence of diabetes (in words) / changes in body weight, amount of feed taken and general symptoms / Amount of Drunk Water, Ninth to Fifteenth Day / Amount of Drunk Water, Second to Eighth Day / Blood Glucose Level, Fifteenth Day: male KK-Ay mice; for changes in body weight, amount of feed taken and general symptoms: experimental period
Method: The suppressive effects of xanthoangelol and 4-hydroxyderricin on incidence of diabetes were examined using type II diabetes model mice. Experiments were carried out with seven male 5-week old KK-Ay mice (CLEA Japan, Inc.) per group. Xanthoangelol and 4-hydroxyderricin were each mixed in a powder feed (CE-2: CLEA Japan, Inc.) so as to have a ratio of 0.15%, and the mice were fed with the blended power feed. The mice in the control group were fed with the powder feed (CE-2). On the day before the beginning of administration, and on the fifteenth day, the blood glucose level was determined in the same manner as in Example 88. In addition, as an index of the incidence of diabetes, amounts of drunk water from the second to eighth days and from the ninth to fifteenth days from the administration were determined, and an average amount of drunk water per day was calculated, respectively. By administration of a mixed feed with xanthoangelol or 4-hydroxyderricin, the suppression of increase in a blood glucose level was found. Further, the suppression of increase in the amount of drunk water which is an index of the incidence of diabetes was found. […] During the experimental period, no changes were found in body weight, amount of feed taken and general symptoms.

[3] = Toxicity test, forcible oral administration for 3 consecutive days; type: in vivo; conditions: female ICR mice, 1 g/kg forcibly orally once a day for 3 days, in CMC or olive oil
Method: The influence of 4-hydroxyderricin and xanthoangelol by forcible oral administration for 3 consecutive days was examined using female 12-week old ICR mice (Japan SLC, Inc.). 4-Hydroxyderricin or xanthoangelol was suspended or dissolved in a 0.5% (w/v) carboxymethyl cellulose solution (CMC) or an olive oil so as to have a concentration of 20% (w/v). The suspension or solution was forcibly orally administered once a day for 3 days in an amount of 5 mL per 1 kg body weight (1 g/kg in terms of 4-hydroxyderricin or xanthoangelol). Three cases were used for each group.

SMILES | enhancing action for transcriptional activation (PPARγ) [1] | Blood Glucose Level, Previous Day [2] | effects for suppressing the incidence of diabetes (in words) [2] | changes in body weight, amount of feed taken and general symptoms [2] | Amount of Drunk Water, Ninth to Fifteenth Day [2] | Amount of Drunk Water, Second to Eighth Day [2] | Blood Glucose Level, Fifteenth Day [2] | cases of death [3] | change in general symptom [3]
COc1ccc(C(=O)/C=C/c2ccc(O)cc2)c(O)c1CC=C(C)C [4-Hydroxyderricin, 4,2′-Dihydroxy-3′-prenyl-4′-methoxychalcone] | no enhancing action for transcriptional activation was found | 226 ± 14 mg/dL | effects for suppressing the incidence of diabetes was found | no changes | 10.0 ± 0.6 mL/day | 7.6 ± 0.2 mL/day | 354 ± 24 mg/dL | No cases of death | no change
COc1ccc(C(=O)/C=C/c2ccc(O)cc2)c(O)c1C/C=C(\C)CCC=C(C)C [Xanthoangelol F, 4,2′-Dihydroxy-3′-geranyl-4′-methoxychalcone] | no enhancing action for transcriptional activation was found |  |  |  |  |  |  |  | 
COc1ccc(C(=O)/C=C/c2ccc(O)cc2)c2c1CC(O)C(C)(C)O2 (centres unmarked) [Xanthoangelol H] | no enhancing action for transcriptional activation was found |  |  |  |  |  |  |  | 
CC(C)=CCC/C(C)=C/Cc1c(O)ccc(C(=O)/C=C/c2ccc(O)cc2)c1O [Xanthoangelol, 4,2′,4′-Trihydroxy-3′-geranylchalcone] | no enhancing action for transcriptional activation was found | 232 ± 11 mg/dL | effects for suppressing the incidence of diabetes was found | no changes | 14.6 ± 2.0 mL/day | 10.3 ± 1.3 mL/day | 426 ± 39 mg/dL | No cases of death | no change
